Values quoted from earlier work, collected in patent US20220087960A1, “Oral Pharmaceutical Immediate Release Composition” (Aardvark Therapeutics Inc., priority 2020, published 2022).
Where two headings read alike, the source gives them in different places.

Test system: healthy volunteers
Settings: intragastric administration, cited from earlier work; for nutrient volume tolerance / satiation: 1 μmol/kg DB

In the case of `CC[N+](CC)(CC(=O)Nc1c(C)cccc1C)Cc1ccccc1.O=C([O-])c1ccccc1` [DB, benzyl-[2-(2,6-dimethylanilino)-2-oxoethyl]-diethylazanium benzoate], the nutrient volume tolerance (listed as Denatonium benzoate) is listed as “reduced nutrient volume tolerance”, the satiation (listed as Denatonium benzoate) is listed as “increased satiation post meal” and the nutrient volume tolerance is listed as “decreased nutrient volume tolerance”. For the same compound, the satiation was “increased satiation”, the hunger ratings was “decreased hunger ratings” and the inter-digestive gastric motility was “attenuated inter-digestive gastric motility”.
